Results taken from US20240318212A1, “PHOSPHORYLATION OF PHENOLIC PHYTOCHEMICALS BY TWO ENZYMES COUPLED SYSTEM” (National Taiwan University, priority 2023, published 2024).

Legend:
ErPPK = assay: Effect of polyphenol derivatives on ErPPK activity; assay type: biochemical, unclassified Erysipelotrichaceae bacterium; details: 0.25 mM
Text: FIG. 4 illustrates the effect of polyphenol derivatives on ErPPK. Data are mean SD (n=3), with significance indicated by p<0.05 using t-test. n.s., non-significance.
Considering the known inhibitory effect of aromatic phosphonates on PPK2 enzymes, we investigated the impact of polyphenols and polyphenol phosphates on ErPPK activity to evaluate their integration into a one-pot bi-enzymatic system. LUT was selected as the polyphenol target, based on its incomplete conversion in microbial systems due to its toxic nature.

[1] = versus parent genistein; cited from earlier work
[2] = versus parent genistein; cited from earlier work; remark: listed apart in the source
ovariectomized rats = details: comparable to estradiol and raloxifene, surpassed genistein; cited from earlier work

In the case of `O=c1cc(-c2ccc(O)c(O)c2)oc2cc(O)cc(O)c12` [LUT, luteolin], the “inhibitory effect on ErPPK activity” value (ErPPK) was “no significant inhibitory effect”.

In the case of `O=c1c(-c2ccc(O)cc2)coc2cc(OP(=O)(O)O)cc(O)c12` [Genistein 7-O-phosphate], the solubility [1] is listed as “improved”, the oral bioavailability [2] is listed as “improved” and the osteoprotective effects (ovariectomized rats) is listed as “improved”.
